In patent US11865125B2, “APKC inhibitors and methods of treating a neurodegenerative disease or disorder” (UNIVERSITY OF SOUTH FLORIDA, priority 2016, dated 2024):
“Also recorded” adds a separate entry of the source.

Legend:
[1] = test system: Akt; assay: Akt activity in LA1-5s neuroblastoma cells; format: cell-based, human; conditions: LA1-5s cells, 200 nM insulin
Experimental: (§1) Relative bar values in panel a are mean±SEM of 6 determinations. Asterisks: *, P<0.05; **, P<0.01; ***, P<0.001 (ANOVA). Values in panel b are means of 2-4 determinations.
(§2) Shown here are Mean±SEM (N=4) values relative to the mean initial basal or insulin-stimulated level of indicated immunoreactive protein/peptide. Asterisks: *, P<0.05; **, P<0.01; ***, P<0.001 (ANOVA).
(§3) Western Analyses. As described, Western analyses were conducted with rabbit antisera or mouse monoclonal antibodies (mMab), using: anti-aPKC (Santa Cruz Biotechnologies, Santa Cruz, CA); anti-phospho-threonine-560/555-PKC-ζ/λ/ι (Invitrogen, Carlsbad, CA); anti-p-serine-256-FoxO1 and anti-FoxO1 (Abnova, Walnut, CA); anti-Akt (mMab), anti-phospho-serine-473-Akt, anti-phospho-serine-9-GSK3P anti-GSK313, anti-phospho-serine-253-FoxO3a, anti-FoxO3a, anti-phospho-serine-256-FoxO1, anti-phospho-serine-193-FoxO4; anti-FoxO1, anti-phospho-serine-2448-mTOR, anti-mTOR, anti-β-amyloid (anti-5-10 kDa-Aβ1-40/42) and anti-amyloid precursor protein (anti-120 kDa-APP) (Cell Signaling Technologies, Danvers, MA); and anti-phospho-serine-202-tau, anti-phospho-threonine-231-tau (Gene Tex, Irvine, CA). Samples from experimental groups were compared on the same blots, and routinely checked with loading controls. Note that: insulin-sensitive 70 kDa aPKC is largely PKC-ζ in mouse brain and orthologous PKC-ι (98% aa homology) in monkey and other primate brains; brain PKC-ζ exists largely as a 50 kDa moiety that, lacking a regulatory domain, is constitutively-active and unresponsive to insulin.

[2] = test system: Aβ1-40/42; assay: Aβ1-40/42 levels in LA1-5s neuroblastoma cells; format: cell-based, human; conditions: LA1-5s cells
Experimental: as §1, §2, §3

[3] = test system: Akt substrates, GSK3β and mTOR; assay: phosphorylation of Akt substrates in LA1-5s neuroblastoma cells; format: cell-based, human; conditions: LA1-5s cells, 200 nM insulin, data not shown
Experimental: as §1, §3

[4] = test system: Aβ1-40/42; assay: brain Aβ1-40/42 peptide levels in mice; format: in vivo, mouse
Source text: (§4) Mouse Studies. Brain samples were obtained from normal and insulin-resistant mice and monkeys used previously, and includes mice originally used in studies of insulin signaling and resistance in liver: (a) 4-6 month old C57Bl/6 mice used in studies of high-fat-feeding [USF Vivarium] [6]; 4-6 month-old male C57Bl/6 ob/ob and lean ob+ mice (Jackson Labs, Bar Harbor, Maine); and (c) 10-12 month-old C57Bl/6 Het-MλKO mice [USF Vivarium] [8]. […] Where indicated normal mice were given a single SC injection of saline or saline containing 1.5 mg/kg ICAPP to follow time-related alterations in brain signaling factors. Where indicated, mice were treated intraperitoneally (IP) with insulin (1 U/kg body weight) or vehicle 15-min before euthanization by administration of Xylazine/Ketamine, followed by whole body perfusion with phosphate-buffered saline and rapid removal of brain and other tissues.
(§5) Tissue Preparations. As described, mouse brains were hemisected sagittally, and one-half was frozen in liquid N2, stored at −80° C., and samples thereof were homogenized in buffer containing 0.25M sucrose, 20 mM Tris/HCl (pH, 7.5), 2 mmol/l EGTA, 2 mM EDTA, 1 mM phenlysulfonoylfluoride (PMSF), 20 μg/ml leupeptin, 10 μg/ml aprotinin, 2 mM Na4P2O7, 2 mM Na3VO4, 2 mM NaF, and 1 μM microcystin, and then supplemented with 1% TritonX-100, 0.6% Nonidet and 150 mM NaCl.
as §3
Where indicated, mice were randomly treated with insulin (1 unit/kg/bw i.p.) 15 min before being euthanized by administration of xylazine/ketamine, followed by whole-body perfusion with PBS and rapid removal of brain and other tissues.

[5] = molecular target: T1, aPKC (Homo sapiens, UniProt P41743); assay: aPKC activity in LA1-5s neuroblastoma cells; format: cell-based; set-up: endogenous in cells; host or cells: LA1-5s human neuroblastoma cells
T1 sequence (P41743 2-596): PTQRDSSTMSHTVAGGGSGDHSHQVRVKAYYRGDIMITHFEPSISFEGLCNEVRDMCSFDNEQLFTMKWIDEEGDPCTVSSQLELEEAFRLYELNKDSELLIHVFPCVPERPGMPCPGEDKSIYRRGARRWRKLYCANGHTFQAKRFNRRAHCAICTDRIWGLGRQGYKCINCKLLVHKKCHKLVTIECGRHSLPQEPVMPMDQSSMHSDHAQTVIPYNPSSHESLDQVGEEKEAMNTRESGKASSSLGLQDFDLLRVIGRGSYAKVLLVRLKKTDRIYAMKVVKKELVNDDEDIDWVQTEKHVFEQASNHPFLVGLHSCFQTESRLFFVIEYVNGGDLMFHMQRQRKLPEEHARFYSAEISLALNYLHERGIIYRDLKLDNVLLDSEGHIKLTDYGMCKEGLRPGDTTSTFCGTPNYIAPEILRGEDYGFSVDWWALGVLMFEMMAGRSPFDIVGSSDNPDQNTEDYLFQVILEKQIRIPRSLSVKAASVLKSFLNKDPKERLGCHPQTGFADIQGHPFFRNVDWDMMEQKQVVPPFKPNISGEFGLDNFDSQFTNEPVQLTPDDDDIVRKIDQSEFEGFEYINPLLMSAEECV

[6] = test system: Akt substrates FOXO1, FOXO3a, GSK3β, and mTOR; assay: phosphorylation of Akt substrates in mouse brain; format: in vivo; conditions: Het-MλKO mice, s.c. once daily for 8 days (ICAPP 0.4 mg/kg, ATM 60 mg/kg)
Source text: as §4, §5
Western Analyses. […]

NC(=O)c1ncn([C@@H]2C[C@H](COP(=O)(O)O)[C@@H](O)[C@H]2O)c1N [ICAPP] was tested, and the “effect on stimulatory effects of insulin on Akt activity” value [1] was “without altering”, the “effect on metformin-induced increase in Aβ1-40/42” value [2] was “dose-dependently inhibited” and the “effect on insulin-stimulated Aβ1-40/42 levels” value ([2]; 200 nM insulin) was “dose-dependent decreases”. The “effect on insulin-stimulated phosphorylation of Akt substrates” value [3] was “without altering”, the “resting/basal brain Aβ1-40/42 peptide levels” value ([4]; Het-MλKO mice, s.c. once daily for 8 days (ICAPP 0.4 mg/kg, ATM 60 mg/kg)) was “returned to normal” and the “acute insulin-induced increase in brain Aβ1-40/42 levels” value ([4]; Het-MλKO mice, s.c. once daily for 8 days (ICAPP 0.4 mg/kg, ATM 60 mg/kg), insulin 1 U/kg i.p. 15 min) was “comparable loss in the ability of insulin to acutely increase Aβ1-40/42 levels; also recorded: abrogated”. The “insulin-dependent brain Aβ1-40/42 peptide levels” value ([4]; normal mice, single s.c. dose of ICAPP 1.5 mg/kg, insulin 1 U/kg i.p. 15 min before killing) was “time-related, well-correlated decreases; also recorded: blocked acute effects of insulin”, the “effect on metformin-induced increase in aPKC activity” value ([5]; LA1-5s cells) was “dose-dependently inhibited” and the IC50 ([5]; LA1-5s human neuroblastoma cells, 200 nM insulin, read-out: IC50, inhibition of insulin-stimulated aPKC activity) was 1 to 10 nM. The “resting/basal phosphorylation of Akt substrates in brain” value [6] was “diminished” and the “acute insulin-stimulated phosphorylation of Akt substrates in brain” value ([6]; insulin 1 U/kg i.p. 15 min) was “restored ability of insulin; also recorded: fully able”.
